Laboratory results published in ChEMBL document CHEMBL3124847, “Membrane damaging activity of a maslinic acid analog” (Eur J Med Chem, 2014).
≈ marks a conversion by molar mass, not a printed value. Calls of active or inactive are those of the source. The rule behind the calls is not given here.

Experiments:
[1] = test system: A2780; test: Induction of apoptosis in human A2780 cells assessed as caspase 8 activity at 60 uM after 24 hrs relative to control; assay type: functional
[2] = test system: A2780; test: Induction of apoptosis in human A2780 cells assessed as caspase 9 activity at 60 uM after 12 hrs relative to control; assay type: functional
[3] = test system: A2780; test: Induction of apoptosis in human A2780 cells assessed as caspase 3 activity at 60 uM after 12 hrs relative to control; assay type: functional
[4] = test system: A2780; test: Cell cycle arrest in human A2780 cells assessed as accumulation at G1/G0 phase at 12 uM after 12 hrs by annexin V/propidium iodide staining-based FACS analysis; assay type: functional
[5] = test system: HT-29; test: Cytotoxicity against human HT-29 cells after 96 hrs by SRB assay; assay type: functional, cell-based; settings: HT-29, 96 h
[6] = Solubility of the compound in buffer at 10 uM after 90 mins by HPLC analysis; assay type: physicochemical
[7] = test system: A2780; test: Cell cycle arrest in human A2780 cells assessed as accumulation at S phase at 24 uM after 6 hrs by annexin V/propidium iodide staining-based FACS analysis; assay type: functional
[8] = test system: A2780; test: Induction of apoptosis in human A2780 cells assessed as caspase 3 activity at 24 uM after 12 hrs relative to control; assay type: functional
[9] = test system: A2780; test: Induction of apoptosis in human A2780 cells assessed as caspase 8 activity at 60 uM after 12 hrs relative to control; assay type: functional
[10] = test system: A2780; test: Induction of apoptosis in human A2780 cells assessed as caspase 8 activity at 24 uM after 6 hrs relative to control; assay type: functional
[11] = test system: A2780; test: Cytotoxicity against human A2780 cells after 96 hrs by SRB assay; assay type: functional, cell-based; settings: A2780, 96 h
[12] = test system: A2780; test: Induction of apoptosis in human A2780 cells assessed as secondary necrotic cells at 24 to 60 uM after 6 to 24 hrs by annexin V/propidium iodide staining-based FACS analysis; assay type: functional, cell-based
[13] = test system: A2780; test: Induction of apoptosis in human A2780 cells assessed as caspase 9 activity at 24 uM after 12 hrs relative to control; assay type: functional
[14] = test system: A2780; test: Induction of apoptosis in human A2780 cells assessed as cholesterol crystal formation at 24 to 60 uM by acridine orange/propidium iodide staining-based fluorescence microscopy; assay type: functional, cell-based; settings: TDE = time-dependent effect
[15] = test system: A549; test: Cytotoxicity against human A549 cells after 96 hrs by SRB assay; assay type: functional, cell-based; settings: A549, 96 h
[16] = test system: A2780; test: Induction of apoptosis in human A2780 cells assessed as caspase 9 activity at 60 uM after 24 hrs relative to control; assay type: functional
[17] = test system: A2780; test: Induction of apoptosis in human A2780 cells assessed as phosphatidylserine externalization at 60 uM after 6 hrs by annexin V/propidium iodide staining-based FACS analysis; assay type: functional
[18] = test system: A2780; test: Induction of apoptosis in human A2780 cells assessed as caspase 3 activity at 60 uM after 24 hrs relative to control; assay type: functional
[19] = test system: A2780; test: Induction of apoptosis in human A2780 cells assessed as caspase 8 activity at 24 uM after 24 hrs relative to control; assay type: functional
[20] = test system: A2780; test: Induction of apoptosis in human A2780 cells assessed as caspase 8 activity at 60 uM after 6 hrs relative to control; assay type: functional
[21] = test system: A2780; test: Induction of apoptosis in human A2780 cells assessed as caspase 8 activity at 24 uM after 12 hrs relative to control; assay type: functional
[22] = test system: A2780; test: Induction of apoptosis in human A2780 cells assessed as caspase 3 activity at 24 uM after 24 hrs relative to control; assay type: functional
[23] = test system: A2780; test: Induction of apoptosis in human A2780 cells assessed as caspase 3 activity at 60 uM after 6 hrs relative to control; assay type: functional
[24] = test system: 8505C; test: Cytotoxicity against human 8505C cells after 96 hrs by SRB assay; assay type: functional, cell-based
[25] = test system: A2780; test: Cell cycle arrest in human A2780 cells assessed as early detachment of cells at 24 to 60 uM after 24 hrs by annexin V/propidium iodide staining-based FACS analysis; assay type: functional
[26] = test system: A2780; test: Induction of apoptosis in human A2780 cells assessed as caspase 9 activity at 24 uM after 24 hrs relative to control; assay type: functional
[27] = test system: NIH3T3; test: Cytotoxicity against mouse NIH/3T3 cells after 96 hrs by SRB assay; assay type: cell-based; settings: NIH3T3, 96 h
[28] = test system: A2780; test: Induction of apoptosis in human A2780 cells assessed as caspase 9 activity at 60 uM after 6 hrs relative to control; assay type: functional
[29] = test system: A2780; test: Induction of apoptosis in human A2780 cells assessed as caspase 9 activity at 24 uM after 6 hrs relative to control; assay type: functional
[30] = test system: A2780; test: Induction of apoptosis in human A2780 cells assessed as DNA fragmentation at 0.024 to 0.060 mM after 6 to 24 hrs by agarose gel electrophoresis; assay type: functional, cell-based
[31] = Cytotoxicity against human 518A2 cells after 96 hrs by SRB assay; assay type: functional, cell-based; settings: 518A2, 96 h
[32] = test system: A2780; test: Induction of apoptosis in human A2780 cells assessed as cell shrinkage at 24 to 60 uM after 24 hrs by acridine orange/propidium iodide staining-based fluorescence microscopy; assay type: functional
[33] = test system: A2780; test: Induction of apoptosis in human A2780 cells assessed as chromatin condensation at 24 to 60 uM after 24 hrs by acridine orange/propidium iodide staining-based fluorescence microscopy; assay type: functional, cell-based
[34] = test system: A2780; test: Induction of apoptosis in human A2780 cells assessed as caspase 3 activity at 24 uM after 6 hrs relative to control; assay type: functional
[35] = test system: A2780; test: Induction of apoptosis in human A2780 cells assessed as cholesterol crystal formation after 24 hrs by acridine orange/propidium iodide staining-based fluorescence microscopy; assay type: functional, cell-based
[36] = test system: MCF7; test: Cytotoxicity against human MCF7 cells after 96 hrs by SRB assay; assay type: functional, cell-based; settings: MCF7, 96 h
[37] = test system: A2780; test: Induction of apoptosis in human A2780 cells at 2 to 6 times IC50 after 6 to 24 hrs by acridine orange/propidium iodide staining-based fluorescence microscopy; assay type: functional, cell-based
[38] = test system: A2780; test: Induction of apoptosis in human A2780 cells assessed as caspase 3 activity at 1 uM after 24 hrs relative to control; assay type: functional
[39] = test system: A2780; test: Induction of apoptosis in human A2780 cells assessed as cholesterol crystal formation at 1 uM by acridine orange/propidium iodide staining-based fluorescence microscopy; assay type: functional, cell-based; settings: TDE = time-dependent effect
[40] = test system: A2780; test: Induction of apoptosis in human A2780 cells assessed as caspase 9 activity at 1 uM after 6 hrs relative to control; assay type: functional
[41] = test system: A2780; test: Induction of apoptosis in human A2780 cells assessed as caspase 9 activity at 1 uM after 12 hrs relative to control; assay type: functional
[42] = test system: A2780; test: Induction of apoptosis in human A2780 cells assessed as caspase 3 activity at 1 uM after 6 hrs relative to control; assay type: functional
[43] = test system: A2780; test: Induction of apoptosis in human A2780 cells assessed as caspase 9 activity at 1 uM after 24 hrs relative to control; assay type: functional
[44] = test system: A2780; test: Induction of apoptosis in human A2780 cells assessed as chromatin condensation at 1 uM after 24 hrs by acridine orange/propidium iodide staining-based fluorescence microscopy; assay type: functional, cell-based
[45] = test system: A2780; test: Induction of apoptosis in human A2780 cells assessed as caspase 8 activity at 1 uM after 6 hrs relative to control; assay type: functional
[46] = test system: A2780; test: Induction of apoptosis in human A2780 cells assessed as caspase 3 activity at 1 uM after 12 hrs relative to control; assay type: functional
[47] = test system: A2780; test: Induction of apoptosis in human A2780 cells assessed as caspase 8 activity at 1 uM after 12 hrs relative to control; assay type: functional
[48] = test system: A2780; test: Induction of apoptosis in human A2780 cells assessed as cell shrinkage at 1 uM after 24 hrs by acridine orange/propidium iodide staining-based fluorescence microscopy; assay type: functional
[49] = test system: A2780; test: Induction of apoptosis in human A2780 cells assessed as caspase 8 activity at 1 uM after 24 hrs relative to control; assay type: functional

Work on `CC1(C)CC[C@]2(C(=O)OCCCOc3ccccc3)CC[C@]3(C)C(=CC[C@@H]4[C@@]5(C)C[C@@H](O)[C@H](O)C(C)(C)[C@@H]5CC[C@]43C)[C@@H]2C1` yielded an Activity [1] of 39%, an Activity [2] of 2% and an Activity [3] of 37%. The Activity [4] was “Active”, the IC50 [5] was 12.5 µM and the solubility at 1.5 h, 10 µM [6] was 110 µM (≈ 66.5 µg/mL). The Activity [7] was “Active”, the Activity [8] was 1% and the Activity [9] was 44%. The Activity [10] was 2%, the IC50 [11] was 10.6 µM and the Activity [12] was “Active”. For the same compound, the Activity [13] was -2%, the Activity [14] was “tde” and the IC50 [15] was 13.7 µM. It also gave an Activity [16] of 21%, an Activity [17] of 80% and an Activity [18] of 31%. For the same compound, the Activity [19] was 27%, the Activity [20] was 25% and the Activity [21] was 1%. For the same compound, the Activity [22] was 25%, the Activity [23] was 29% and the IC50 [24] was 13.3 µM. For the same compound, the Activity [25] was “Active”, the Activity [26] was 6% and the IC50 [27] was 12.7 µM. The Activity [28] was 3%, the Activity [29] was 0% and the Activity [30] was “Active”. The IC50 [31] was 12.6 µM, the Activity [32] was “Active” and the Activity [33] was “Active”. The Activity [34] was 2%, the Activity [35] was “Dose-dependent effect” and the IC50 [36] was 13.6 µM. For the same compound, the Activity [37] was “Active”.

With `CC1(C)CC[C@]2(C(=O)O)CC[C@]3(C)C(=CC[C@@H]4[C@@]5(C)C[C@@H](O)[C@H](O)C(C)(C)[C@@H]5CC[C@]43C)[C@@H]2C1` [MASLINIC ACID] the IC50 [27] was 21.1 µM.

With `CN[C@@H]1C[C@H]2O[C@@](C)([C@@H]1OC)n1c3ccccc3c3c4c(c5c6ccccc6n2c5c31)C(=O)NC4` [STAUROSPORINE] the Activity [38] was 57%, the Activity [39] was “tde” and the Activity [40] was 38%. For the same compound, the Activity [41] was 3%, the Activity [42] was 68% and the Activity [43] was 33%. The Activity [44] was “Active”, the Activity [45] was 51% and the Activity [46] was 52%. For the same compound, the Activity [47] was 52%, the Activity [48] was “Active” and the Activity [49] was 79%. The Activity [35] was “Dose-dependent effect”.
